The values below come from ChEMBL document CHEMBL1124119, “(+/-)-4-tert-butyl-3-cyano-1-(4-ethynylphenyl)-2,6,7-trioxabi cyclo[2.2.2]octane: synthesis of a remarkably potent GABAA receptor antagonist” (J Med Chem, 1988).

Assay [1] deals with GABA-A receptor; anion channel. Kind of assay: In vitro inhibition of [35S]-TBPS binding to EDTA/water-dialyzed mouse brain P2 membranes. Format: tissue-based.
Assay [2] has as its target Gamma-aminobutyric acid receptor subunit gamma-1 (Rattus norvegicus, UniProt P23574). Kind of assay: Inhibition of GABA-stimulated 36Cl- uptake by membrane vesicles of rat cerebral cortex. Format: functional, tissue-based.
For assay [3], the target named is T1, GABA-A receptor; anion channel (Mus musculus) (UniProt Q8BHJ7+P26048+Q8QZW7+P50571+Q9R0Y8+P22723+A2AMW3+P62812+Q9JLF1+P26049+P22933+Q9D6F4+P63080+P27681+P16305). Nature of the assay: Ex vivo inhibition of [35S]TBPS binding to mouse brain membranes in the presence of Diazepam after 30 min. To be noted: Membrane. Format: tissue-based.
Assay [4] deals with T1, GABA-A receptor; anion channel (Mus musculus). Kind of assay: Ex vivo inhibition of [35S]TBPS binding to mouse brain membranes after 30 min. It counts as tissue-based. To be noted: Membrane.
Assay [5] has the same target. Nature of the assay: Ex vivo inhibition of [35S]TBPS binding to mouse brain membranes in the presence of phenobarbital after 30 min. Format: tissue-based. To be noted: Membrane.
The target in assay [6] is GABA-A receptor; anion channel. Nature of the assay: In vitro inhibition of [35S]TBPS binding to EDTA/water-dialyzed mouse brain P2 membranes. Format: tissue-based.

Gamma-aminobutyric acid receptor subunit gamma-1, sequence (P23574 whole entry): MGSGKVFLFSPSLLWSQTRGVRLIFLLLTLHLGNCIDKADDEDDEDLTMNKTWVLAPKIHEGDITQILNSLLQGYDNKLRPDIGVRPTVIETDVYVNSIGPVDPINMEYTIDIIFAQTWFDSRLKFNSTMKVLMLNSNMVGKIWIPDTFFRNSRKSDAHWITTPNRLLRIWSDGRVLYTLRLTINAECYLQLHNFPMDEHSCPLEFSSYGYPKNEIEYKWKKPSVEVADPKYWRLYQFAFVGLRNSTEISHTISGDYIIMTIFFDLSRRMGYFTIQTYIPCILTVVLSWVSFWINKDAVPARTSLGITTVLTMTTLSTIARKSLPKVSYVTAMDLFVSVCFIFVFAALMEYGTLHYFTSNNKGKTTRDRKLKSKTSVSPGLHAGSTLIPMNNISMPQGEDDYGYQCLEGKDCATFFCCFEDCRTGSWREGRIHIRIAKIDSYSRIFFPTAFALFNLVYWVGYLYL

Consider `CC(C)(C)C12COC(c3ccc(C#N)cc3)(OC1)OC2`, for which the half-inhibitory concentration (IC50) worked out at 2.5 nM in assay [1] and 40 nM in assay [2].

As for `C#Cc1ccc(C23OCC(C(C)(C)C)(CO2)C(C#N)O3)cc1` (configuration not stated), the inhibition in assay [3] was 59%; in assay [4] it was 68%; in assay [5], 61%. In addition, the IC50 in assay [6] is 0.25 nM; in assay [2], 25 nM.

For orientation: IC50 means the concentration needed to halve the response being measured. Lower therefore signals greater potency in that assay. Usually inhibition stands for the drop in the measured response relative to a control, in per cent.
